Results from ChEMBL document CHEMBL3046186, “Identification of ZINC02765569: a potent inhibitor of PTP1B by vHTS” (2013).

Tests used:
[1] = target: T1, Tyrosine-protein phosphatase non-receptor type 1 (Rattus norvegicus) (UniProt P20417); test: Ratio of rosiglitazone activity to compound activity for inhibition of PTP1B in Rattus norvegicus (rat) L6 cells; assay type: cell-based
T1 sequence (whole entry): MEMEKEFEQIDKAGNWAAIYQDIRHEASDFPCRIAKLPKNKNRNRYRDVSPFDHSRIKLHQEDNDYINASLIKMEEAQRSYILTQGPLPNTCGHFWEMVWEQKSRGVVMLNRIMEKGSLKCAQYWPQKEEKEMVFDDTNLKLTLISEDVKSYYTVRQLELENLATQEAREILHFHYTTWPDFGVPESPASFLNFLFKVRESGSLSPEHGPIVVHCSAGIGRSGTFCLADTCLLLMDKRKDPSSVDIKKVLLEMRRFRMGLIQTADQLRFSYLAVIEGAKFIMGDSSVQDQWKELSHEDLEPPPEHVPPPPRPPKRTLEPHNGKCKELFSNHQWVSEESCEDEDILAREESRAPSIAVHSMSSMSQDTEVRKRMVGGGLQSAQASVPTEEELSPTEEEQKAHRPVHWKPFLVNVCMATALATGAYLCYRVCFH

Rattus norvegicus [2] = test: Antihyperglycemic activity in sucrose-challenged streptozotocin-induced Rattus norvegicus Wistar albino (rat) diabetic model assessed as glucose reduction at 30 mg/kg measured at 24 hr relative to control; assay type: functional; design: scale not given: the % may be the effect or the level left
Rattus norvegicus [3] = test: Antihyperglycemic activity in sucrose-challenged streptozotocin-induced Rattus norvegicus Wistar albino (rat) diabetic model assessed as glucose reduction at 30 mg/kg measured at 5 hr relative to control; assay type: functional; design: scale not given: the % may be the effect or the level left
Rattus norvegicus [4] = test: Antihyperglycemic activity in sucrose-loaded Rattus norvegicus Wistar albino (rat) diabetic model assessed as glucose reduction at 30 mg/kg measured at 24 hr relative to control; assay type: functional; design: scale not given: the % may be the effect or the level left
Rattus norvegicus [5] = test: Antihyperglycemic activity in sucrose-loaded Rattus norvegicus Wistar albino (rat) diabetic model assessed as glucose reduction at 30 mg/kg measured at 5 hr relative to control; assay type: functional; design: scale not given: the % may be the effect or the level left
[6] = target: T2, Tyrosine-protein phosphatase non-receptor type 1 (Homo sapiens) (UniProt P18031); test: Inhibition of Homo sapiens (human) recombinant PTP1B at 10 uM relative to control
T2 sequence (whole entry): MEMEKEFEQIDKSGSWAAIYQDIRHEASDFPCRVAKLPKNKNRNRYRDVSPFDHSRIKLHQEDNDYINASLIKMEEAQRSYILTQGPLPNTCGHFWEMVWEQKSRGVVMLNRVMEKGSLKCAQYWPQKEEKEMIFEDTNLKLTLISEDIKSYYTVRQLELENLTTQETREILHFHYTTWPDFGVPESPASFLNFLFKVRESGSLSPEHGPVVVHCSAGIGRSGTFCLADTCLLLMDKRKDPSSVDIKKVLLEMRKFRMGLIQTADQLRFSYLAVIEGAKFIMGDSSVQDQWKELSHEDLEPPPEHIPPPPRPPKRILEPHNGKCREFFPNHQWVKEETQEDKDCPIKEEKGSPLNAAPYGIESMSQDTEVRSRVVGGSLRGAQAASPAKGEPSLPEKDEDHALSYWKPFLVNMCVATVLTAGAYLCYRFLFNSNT

[7] = target: T1, Tyrosine-protein phosphatase non-receptor type 1 (Rattus norvegicus); test: Inhibition of PTP1B in Rattus norvegicus (rat) L6 cells assessed as cellular 2-deoxy-D-[U-14C]glucose uptake at 10 to 50 uM after 18 hr relative to control; assay type: cell-based
[8] = target: T1, Tyrosine-protein phosphatase non-receptor type 1 (Rattus norvegicus); test: Ratio of metformin activity to compound activity for inhibition of PTP1B in Rattus norvegicus (rat) L6 cells; assay type: cell-based
[9] = target: T1, Tyrosine-protein phosphatase non-receptor type 1 (Rattus norvegicus); test: Inhibition of PTP1B in Rattus norvegicus (rat) L6 cells assessed as cellular 2-deoxy-D-[U-14C]glucose uptake at 500 uM after 18 hr relative to control; assay type: cell-based

Ratio [1] | inhibition [6] [%] | inhibition [7] [%] | Ratio [8] | inhibition [9] [%] | Compound | Activity (Rattus norvegicus [2]) [%] | Activity (Rattus norvegicus [3]) [%] | Activity (Rattus norvegicus [4]) [%] | Activity (Rattus norvegicus [5]) [%]
10 | 24.2 | 18.5 | 50 |  | O=C(CSc1nc2ccccc2[nH]1)Nc1cccc(C(=O)O)c1 | 45 | 48 | 33 | 32
 | 20 |  |  |  | Cc1ccc(C(=O)Nc2ccc(S(=O)(=O)O)c3cc(S(=O)(=O)O)cc(S(=O)(=O)O)c23)cc1NC(=O)c1cccc(NC(=O)Nc2cccc(C(=O)Nc3cc(C(=O)Nc4ccc(S(=O)(=O)O)c5cc(S(=O)(=O)O)cc(S(=O)(=O)O)c45)ccc3C)c2)c1 |  |  |  | 
 |  |  |  | 30.2 | CN(C)C(=N)NC(=N)N [METFORMIN] | 17 | 18 | 17 | 13
 |  |  |  |  | CN(CCOc1ccc(CC2SC(=O)NC2=O)cc1)c1ccccn1 (stereo not drawn) [ROSIGLITAZONE] | 24 | 21 | 26 | 23
